Three compounds from publication PMC3094704, “S-Petasin, the Main Sesquiterpene of Petasites formosanus, Inhibits Phosphodiesterase Activity and Suppresses Ovalbumin-Induced Airway Hyperresponsiveness” (Evidence-based Complementary and Alternative Medicine : eCAM, 2011) can be followed below.

One test addresses T1, PDE2 (Cavia porcellus, UniProt A0A286XUV5).
T1 sequence (A0A286XUV5 22-936): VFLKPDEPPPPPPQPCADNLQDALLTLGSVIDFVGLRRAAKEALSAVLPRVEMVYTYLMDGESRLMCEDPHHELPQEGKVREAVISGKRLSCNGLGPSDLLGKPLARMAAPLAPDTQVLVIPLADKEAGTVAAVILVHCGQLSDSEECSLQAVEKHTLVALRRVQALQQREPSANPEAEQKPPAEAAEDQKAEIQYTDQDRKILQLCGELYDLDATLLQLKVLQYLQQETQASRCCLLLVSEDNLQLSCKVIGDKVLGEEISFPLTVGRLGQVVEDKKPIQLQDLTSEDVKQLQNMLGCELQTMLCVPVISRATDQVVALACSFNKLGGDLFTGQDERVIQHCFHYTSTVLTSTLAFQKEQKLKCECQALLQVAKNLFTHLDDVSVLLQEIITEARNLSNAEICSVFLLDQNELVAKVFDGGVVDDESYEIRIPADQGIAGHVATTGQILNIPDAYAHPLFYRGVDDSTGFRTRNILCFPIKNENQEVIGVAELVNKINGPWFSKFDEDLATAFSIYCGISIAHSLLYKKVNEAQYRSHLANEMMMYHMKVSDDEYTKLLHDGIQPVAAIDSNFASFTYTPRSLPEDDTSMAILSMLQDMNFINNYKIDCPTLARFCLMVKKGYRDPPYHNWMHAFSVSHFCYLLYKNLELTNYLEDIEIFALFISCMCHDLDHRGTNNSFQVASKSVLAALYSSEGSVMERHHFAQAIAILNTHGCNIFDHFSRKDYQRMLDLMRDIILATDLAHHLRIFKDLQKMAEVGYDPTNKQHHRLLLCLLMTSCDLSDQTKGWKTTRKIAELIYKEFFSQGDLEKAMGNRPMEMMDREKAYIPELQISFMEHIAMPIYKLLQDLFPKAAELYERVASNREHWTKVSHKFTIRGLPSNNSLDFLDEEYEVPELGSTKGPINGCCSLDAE
Put plainly: Inhibition of PDE2 activity (two-step radioenzymatic assay). To be noted: mean ± SEM (n); read-out: IC50 on PDE isozyme 2. The format is biochemical, guinea pig. The procedure:
Activities of PDE1–5, partially separated from guinea pig lungs and hearts according to the method described by Ko et al., were measured with a two-step procedure according to the method of Thompson and Appleman, using cAMP with [^3H]-cAMP or cGMP with [^3H]-cGMP as substrates. The enzyme pμreparation (25 μL) was incubated for 30 min at 37°C in a total assay volume of […] containing 50 mM Tris-HCl (pH 7.4), 3 mM MgCl2, 1 mM dithiothreitol, 0.05% BSA, 1 μM cAMP with 0.2 μCi [^3H]-cAMP as a substrate alone or in the presence of 0.1 units calmodulin with 10 μM CaCl2 or 5 μM cGMP, and 1 μM cGMP with 0.2 μCi [^3H]-cGMP as another substrate alone or in the presence of 0.1 units calmodulin with 10 μM CaCl2. […] The reagents and homogenate were mixed on ice, and the reaction was initiated by transferring the mixture to a water bath at 37°C. Following a 30-min incubation, the reaction was stopped by transferring the reaction vessel to a bath of boiling water for 3 min. After cooling on ice, 20 μL of a 1 mg/mL solution of C. atrox snake venom was added to the reaction mixture, and the mixture was incubated at 37°C for 10 min. Unreacted [^3H]-cAMP or [^3H]-cGMP was removed by the addition of 500 μL of a 1-in-1 Tris-HCl (40 mM) buffer suspension of Dowex resin (1 × 8-200) with incubation on ice for 30 min. […]

Test [1] deals with isolated sensitized guinea pig trachea. Put plainly: OVA-induced tracheal contractions and baseline tension in vitro. On the procedure: Male Hartley guinea pigs (500–600 g) were sensitized by intramuscular injections of 0.7 mL of 5% (w/v) OVA in saline on Days 1, 4 and 43, and in adjuvant on Days 25 and 39 into each thigh, according to a method described by Underwood et al. and modified by us. Three days after the last injection, sensitized guinea pigs were sacrificed by cervical dislocation, and their tracheas removed. Each trachea was cut into six segments. Each segment consisted of three cartilage rings. All segments were cut open opposite the trachealis. […] Tissues were suspended in normal Krebs solution under an initial tension of 1.5 g and allowed to equilibrate for at least 1 h with washing at 15-min intervals. After the tissues were precontracted with KCl (60 mM) and washed with normal Krebs solution, OVA (0.1–100 μg/mL) was cumulatively added, and contractions were allowed to reach a steady state at each concentration. […] Therefore, the log concentration-response curves of OVA were constructed in the absence and presence of S-petasin. The tension of the precontraction induced by KCl was set as 100%.

In another test the target is PDE4. Description: Inhibition of PDE4 activity and Lineweaver-Burk analysis. The format is biochemical, guinea pig. On the procedure:
Activities of PDE1–5, partially separated from guinea pig lungs and hearts according to the method described by Ko et al., were measured with a two-step procedure according to the method of Thompson and Appleman, using cAMP with [^3H]-cAMP or cGMP with [^3H]-cGMP as substrates. The enzyme pμreparation (25 μL) was incubated for 30 min at 37°C in a total assay volume of […] containing 50 mM Tris-HCl (pH 7.4), 3 mM MgCl2, 1 mM dithiothreitol, 0.05% BSA, 1 μM cAMP with 0.2 μCi [^3H]-cAMP as a substrate alone or in the presence of 0.1 units calmodulin with 10 μM CaCl2 or 5 μM cGMP, and 1 μM cGMP with 0.2 μCi [^3H]-cGMP as another substrate alone or in the presence of 0.1 units calmodulin with 10 μM CaCl2. In tests of enzyme inhibition, the reaction mixture contained 10 μL of vehicle or inhibitors, at various concentrations of S-petasin or selective PDE1–5 inhibitors, such as vinpocetin [22], EHNA [23], milrinone, Ro 20-1724 [25] and zaprinast, as reference drugs. The reagents and homogenate were mixed on ice, and the reaction was initiated by transferring the mixture to a water bath at 37°C. Following a 30-min incubation, the reaction was stopped by transferring the reaction vessel to a bath of boiling water for 3 min. After cooling on ice, 20 μL of a 1 mg/mL solution of C. atrox snake venom was added to the reaction mixture, and the mixture was incubated at 37°C for 10 min. Unreacted [^3H]-cAMP or [^3H]-cGMP was removed by the addition of 500 μL of a 1-in-1 Tris-HCl (40 mM) buffer suspension of Dowex resin (1 × 8-200) with incubation on ice for 30 min. Each tube was then centrifuged for 2 min at 3700 g, and 150 μL of the supernatant was removed for liquid scintillation counting. Less than 10% of the tritiated cyclic nucleotide was hydrolyzed in this assay. The total protein in each fraction used was assayed according to the method described by Bradford. The PDE activities are shown as nmol/mg/min in the Lineweaver-Burk analysis.

The test system of test [2] is high-affinity rolipram binding sites (HARBSs) of guinea pig brain cell membranes. Description: Displacement of [3H]-rolipram (PDE4H determination). The procedure:
When the above-described guinea pigs were sacrificed, the whole brains were removed and homogenized with a glass/Teflon homogenizer (Glas-Col, Terre Haute, IN, USA) in 10 volumes of cold medium (pH 6.5) containing 20 mM Bis-Tris, 2 mM benzamidine, 2 mM EDTA, 50 mM sodium chloride, 0.1 mM PMSF and 1 mM dithiothreitol. At 4°C, the homogenate was centrifuged at 170 g for 5 min to remove connective tissues and blood vessels. The suspended homogenate was then re-centrifuged at 40 000 g for 30 min to separate the cytosolic and particulate portions. The particulate portion was re-suspended in a suspension at a concentration of 400 mg/mL (wet weight/volume), after washing three times with homogenizing buffer. The particulate portion mainly consisted of cell membranes. The binding ability of S-petasin (3–300 μM) or Ro 20-1724 (1–10,000 nM), a reference drug, to high-affinity rolipram binding sites (HARBSs) of the membranes was determined by replacing 2 nM [^3H]-rolipram in a reaction buffer at 30°C for 1 h, according to the method described by previous investigators and modified by us. Briefly, the reaction buffer consisted of 50 mM Tris-HCl and 5 mM MgCl2 (pH 7.5). The total volume of the reaction mixture was 25 μL, consisting of 10 μL of particulate suspension, 10 μL of [^3H]-rolipram and 5 μL of S-petasin or Ro 20-1724. After 1 h, the reaction was terminated by moving the reaction vessel into crushed ice. Then the reaction mixture was transferred onto Whatman GF/B glass-fiber filters, which were soaked in a 0.3% polyethyleneimine solution in a mini-funnel. The reaction mixture was filtered by centrifuging at 90 g for 10 s, and the filtrate was collected into a 1.5 mL Eppendorf tube with a top adapted to the outlet of the mini-funnel. The filters were washed with 300 μL of reaction buffer three times each in the same way, and transferred into 2 mL of cocktail for radiation counting (total binding) using a β-scintillation counter (Beckman, Fullerton, CA, USA). Non-specific binding, which was defined in the presence of 10 μM Ro 20-1724, was subtracted from the total binding to yield the specific binding. The effective concentration (EC50) values of S-petasin and Ro 20-1724, at which a half of [^3H]-rolipram bound onto HARBSs of cell membranes was displaced, were defined as the PDE4H values, and these were related to any adverse effects, such as nausea, vomiting and gastric hypersecretion.
Background: In a radioligand displacement assay an active substance lowers the binding of a labelled ligand.

Another test concerns the target PDE3. Put plainly: Inhibition of PDE3 activity and Lineweaver-Burk analysis. It is filed as biochemical, guinea pig. The procedure: Activities of PDE1–5, partially separated from guinea pig lungs and hearts according to the method described by Ko et al., were measured with a two-step procedure according to the method of Thompson and Appleman, using cAMP with [^3H]-cAMP or cGMP with [^3H]-cGMP as substrates. The enzyme pμreparation (25 μL) was incubated for 30 min at 37°C in a total assay volume of […] containing 50 mM Tris-HCl (pH 7.4), 3 mM MgCl2, 1 mM dithiothreitol, 0.05% BSA, 1 μM cAMP with 0.2 μCi [^3H]-cAMP as a substrate alone or in the presence of 0.1 units calmodulin with 10 μM CaCl2 or 5 μM cGMP, and 1 μM cGMP with 0.2 μCi [^3H]-cGMP as another substrate alone or in the presence of 0.1 units calmodulin with 10 μM CaCl2. […] The reagents and homogenate were mixed on ice, and the reaction was initiated by transferring the mixture to a water bath at 37°C. Following a 30-min incubation, the reaction was stopped by transferring the reaction vessel to a bath of boiling water for 3 min. After cooling on ice, 20 μL of a 1 mg/mL solution of C. atrox snake venom was added to the reaction mixture, and the mixture was incubated at 37°C for 10 min. Unreacted [^3H]-cAMP or [^3H]-cGMP was removed by the addition of 500 μL of a 1-in-1 Tris-HCl (40 mM) buffer suspension of Dowex resin (1 × 8-200) with incubation on ice for 30 min. Each tube was then centrifuged for 2 min at 3700 g, and 150 μL of the supernatant was removed for liquid scintillation counting. […] The total protein in each fraction used was assayed according to the method described by Bradford. The PDE activities are shown as nmol/mg/min in the Lineweaver-Burk analysis.

Molecules are shown by their SMILES. Counter-ions that a name gives are not always drawn.

As for `CCCCCC[C@@H]([C@@H](C)O)n1cnc2c(N)ncnc21` (racemic) [EHNA, erythro-9-(2-hydroxy-3-nonyl)-adenine HCl], the IC50 – broadly, the concentration needed to halve the response being measured – at PDE2 is 6500 ± 1000 nM.

As to `CCCCOc1cc(CC2CNC(=O)N2)ccc1OC` (stereo not drawn) [Ro 20-1724, 4-(3-butoxy-4-methoxybenzyl)-2-imidazolidinone, reference compound], the “OVA (10 μg/mL)-induced contractions” value in test [1] (30 μM) is reported as “significantly inhibited”. The Baseline tension result in test [1] (3–30 μM) is “concentration-dependently and significantly relaxed”. Besides, the “OVA (10–100 μg/mL)-induced contractions” value in test [1] (10–30 μM) is “concentration-dependently inhibited”. Further, the inhibition constant (Ki) (in general, a measure of affinity in units of concentration, obtained from inhibition or displacement) on PDE4 (Lineweaver-Burk analysis, cAMP substrate, read-out: Ki on PDE isozyme 4) amounted to 4200 ± 700 nM. In addition, the “Mode of inhibition of PDE4 activity” value in the test with PDE4 (Lineweaver-Burk analysis, S-petasin 3–30 μM, Ro 20-1724 1–10 μM) was “competitively inhibited”. For the same compound, the IC50 in the test with PDE4 (mean ± SEM (n), read-out: IC50 on PDE isozyme 4 (taken as PDE4L value)) amounted to 6900 ± 600 nM. Moreover, the EC50 (usually the concentration needed to bring the measured effect to its halfway point) in test [2] (HARBSs of guinea pig brain cell membranes) stood at 95.8 ± 13.6 nM. Besides, the “percentage displacement of [3H]-rolipram binding” value in test [2] (at the highest concentration (10 000 nM), 2 nM [3H]-rolipram) is 100%±2.1%.

As to `Cc1[nH]c(=O)c(C#N)cc1-c1ccncc1` [milrinone, reference compound], the Ki at PDE3 (Lineweaver-Burk analysis, cAMP substrate, read-out: Ki on PDE isozyme 3) was 1600 ± 200 nM. In the test with PDE3 (Lineweaver-Burk analysis, S-petasin 3–30 μM, milrinone 0.3–3 μM), the “Mode of inhibition of PDE3 activity” value is reported as “competitively inhibited”. Moreover, the concentration for half-maximal inhibition (IC50) in the test on PDE3 (mean ± SEM (n), read-out: IC50 on PDE isozyme 3) was 1500 ± 200 nM.
